Marks after values point to notes of the source that are not given here.
Tested on: ALL-SCID 4
Experiment: Anticancer activity in human leukemia model ALL-SCID 4
Settings: 100 mg/kg i.p., day 25
Text: Anticancer activity of the sodium meta-arsenite and arsenic trioxide against two human paediatric acute lymphoblastic leukemia (ALL) models in vivo, ALL-SCID 4 was investigated to compare.
Male NOD/SCID mice (deficient in T and B lymphocytes, NK cells and functional macrophages) were transplanted s.c. on day 0 with fragments of ALL-SCID 4 cancers, which were obtained from mice used for routine passage of the cancers. Mice were randomized to the scheduled treatment groups.
Sodium meta-arsenite was administered orally at 2, 4 and 6 mg/kg/day (⅓ MTD, ⅔ MTD and MTD) once every day from day 34-54 after transplantation. The vehicle control (5% glucose in water) was administered i.p. (10 ml/kg).
Sodium meta-arsenite was dissolved in ready-to-use sterile infusion (5% (w/v) glucose in aqua injectabila). Arsenic trioxide was dissolved in 25 mM NaOH then dissolved in 5% glucose in aqua injectabila. The solutions were prepared freshly on the day of therapy for each administration.

For O=P1(N(CCCl)CCCl)NCCCO1 (stereo not drawn) [Cyclophosphamide, reference compound], the “BW loss % (day)” value was “+4 (34) %”, the Drug-related deaths was 0/8 and the T/C % was 4* %.
